{"source": "paper PMC8476831", "about": "“Pharmacological Characterization of Toludesvenlafaxine as a Triple Reuptake Inhibitor” (Frontiers in Pharmacology, 2021)", "key": {"[1]": {"test_system": "olfactory bulbectomized rats", "assay": "Olfactory bulbectomized model: open field test, sucrose consumption, serum corticosterone and testosterone", "procedure": "Thereafter, all rats received daily intragastric dosing for 20 days. The open field test on the 7th and 14th days of dosing, sucrose consumption on the 18th day of dosing, and serum levels of corticosterone and testosterone on the 20th day of dosing were determined.\n(§1) Locomotor activity was measured in custom-made acrylic boxes (Height✕Width✕Length: 40✕52✕52 cm). The boxes were placed underneath cameras and all sessions (the duration of the sessions was 5 min) were recorded and data were later quantified by experimenters blinded to treatments. The bottom surface of the boxes was divided into 16 equal squares. Two parameters were quantified from the sessions: the number of squares each rat crossed with both front paws and the number of rearing episodes. Standing with two front paws off the ground was considered one episode of rearing.\n(§2) Rats were exposed to 1% sucrose solution in leak-proof bottles for 1 h per day for 3 consecutive days. […] The weight difference of the bottles before and after the 2-h test was considered the total amount of sucrose consumed by the rats.\nThe serum corticosterone and testosterone levels were measured following the kit instructions."}, "CUMS rats": {"test_system": "CUMS rats", "assay": "Chronic unpredictable mild stress (CUMS) model: open field test and sucrose consumption", "settings": "7.3 mg/kg oral once daily 21 days", "source_text": "Briefly, SD rats were randomly exposed to various stressors for 3 weeks. […] No stressor was repeated within 2 days for each rat. The control group was housed in a separate room, with free access to food and water, and not disturbed.\nRats received oral administration of study drugs once daily for 21 consecutive days during the chronic stress exposure period. At the end of the chronic stress and drug treatment period, the open field test (21st day) and amount of sucrose consumption (22nd day) were determined.\nas §1, §2"}, "[2]": {"assay": "Blood, brain and hypothalamus distribution after single intragastric dose", "type": "in vivo, Wistar rats", "settings": "rats, toludesvenlafaxine 8 mg/kg intragastric", "procedure": "Total brain and hypothalamus distribution study was conducted in Wistar rats (4/sex/group) following a single intragastric dose at 8 mg/kg. […] All tissues were immediately rinsed with 200 μg/ml dichlorovos (as esterase inhibitor) ice-cold saline after collection and then were stored at −80°C until analysis using LC-MS/MS."}, "striatum": {"test_system": "striatum", "design": "method as in Zhang et al., 2014", "settings": "ref Zhang et al., 2014; cited from earlier work"}, "[3]": {"settings": "7.3 mg/kg daily, 20th day of dosing"}, "[4]": {"settings": "both sexes, Wistar, rat, blood, oral, read-out: Blood concentration"}, "[5]": {"settings": "both sexes, Wistar, rat, brain, oral, read-out: Brain concentration"}, "[6]": {"settings": "both sexes, Wistar, rat, hypothalamus, oral, read-out: Hypothalamus concentration"}}, "note": "Read-outs that look alike come from different tables or passages of the source. Marks after values point to notes of the source that are not given here."}
{"smiles": "CN(C)CC(c1ccc(O)cc1)C1(O)CCCCC1", "note": "(stereo not drawn) [DVS, desvenlafaxine succinate monohydrate]", "values": [{"measurement": "Moving distance (squares crossed) Day 7", "setting": "[1]; 7.3 mg/kg daily intragastric", "result": "26.8 ± 7.6", "unit": "squares crossed"}, {"measurement": "Moving distance (squares crossed) Day 14", "setting": "[1]; 7.3 mg/kg daily intragastric", "result": "26.7 ± 10.1", "unit": "squares crossed"}, {"measurement": "Rearing time Day 7", "setting": "[1]; 7.3 mg/kg daily intragastric", "result": "7.0 ± 3.1^d seconds"}, {"measurement": "Rearing time Day 14", "setting": "[1]; 7.3 mg/kg daily intragastric", "result": "9.4 ± 3.1^d seconds"}, {"measurement": "Sugar consumption rate", "setting": "[1]; 7.3 mg/kg daily, 18th day of dosing", "result": "58.1 ± 26.6", "unit": "%"}, {"measurement": "Corticosterone (serum)", "setting": "[1]; [3]", "result": "394.1 ± 231.6", "unit": "ng/L"}, {"measurement": "Testosterone (serum)", "setting": "[1]; [3]", "result": "2.4 ± 1.8", "unit": "ng/mL"}, {"measurement": "Sugar consumption rate", "setting": "CUMS rats; day 22", "result": "82.1 ± 7.4^d %"}, {"measurement": "Numbers of squares crossed", "setting": "CUMS rats; open field day 21", "result": "47.0 ± 12.1^e"}, {"measurement": "Rearing time", "setting": "CUMS rats; open field day 21", "result": "15.2 ± 3.9^d seconds"}]}
{"smiles": "CN(C)CC(c1ccc(O)cc1)C1(O)CCCCC1", "note": "(stereo not drawn) [ODV, O-desmethylvenlafaxine]", "values": [{"measurement": "concentration at 20 min", "setting": "[2]; both sexes, Wistar, rat, blood, oral, 15 min row (footnote: detected at 20 min)", "result": "90.9 ± 33.5", "unit": "ng/mL"}, {"measurement": "concentration at 1 h", "setting": "[2]; [4]", "result": "68.2 ± 23.6", "unit": "ng/mL"}, {"measurement": "concentration at 12 h", "setting": "[2]; [4]", "result": "2.84 ± 2.69", "unit": "ng/mL"}, {"measurement": "concentration at 15 min", "setting": "[2]; both sexes, Wistar, rat, brain, oral, 15 min, read-out: Brain concentration", "result": "13.8 ± 8.4", "unit": "ng/g"}, {"measurement": "concentration at 1 h", "setting": "[2]; [5]", "result": "20.9 ± 6.8", "unit": "ng/g"}, {"measurement": "concentration at 12 h", "setting": "[2]; [5]", "result": "2.06 ± 1.29", "unit": "ng/g"}, {"measurement": "concentration at 15 min", "setting": "[2]; both sexes, Wistar, rat, hypothalamus, oral, 15 min, read-out: Hypothalamus concentration", "result": 92.5, "unit": "ng/g"}, {"measurement": "concentration at 1 h", "setting": "[2]; [6]", "result": "97.9 ± 58", "unit": "ng/g"}, {"measurement": "concentration at 12 h", "setting": "[2]; [6]", "result": "7.22 ± 6.79", "unit": "ng/g"}, {"measurement": "Hypothalamus concentration", "setting": "[2]; 15 min", "result": "92.52 ± 68.23", "unit": "ng/g"}, {"measurement": "striatal DA level", "setting": "striatum", "result": "does not increase"}]}
